# Patent US8741859B2, “Fungicide composition for agriculture and horticulture and method for preventing plant diseases” (Ishihara Sangyo Kaisha, Ltd, priority 2008, dated 2014)
# Experiments:
# Pythium spinosum = assay: Inhibition test of mycelial growth against rice seedling blight (Pythium spinosum); assay type: cell-based; conditions: Globisporangium spinosum, 48 h, PDA plate, 2 days, 20° C., read-out: Inhibition Rate of Mycelial Growth against Pythium spinosum (%)
# Protocol: Inhibition Test of Mycelial Growth Against Rice Seedling Blight (Pythium spinosum)
# (§1) The strain to use for a test was precultured on a PSA plate for two days at 20° C. Then, the peripheral portion of the grown mycelia was cut out with a cork borer (4 mm in diameter) to put on PDA plate which was prepared to contain an active ingredient at a predetermined concentration by diluting. After culturing for two days at 20° C., a diameter of the mycelial colony was measured to obtain an inhibition rate of mycelial growth.
# (§2) In addition, a theoretical value of the inhibition rate was calculated using Colby's formula and listed in parentheses of Table 1.
# Pythium graminicola = assay: Inhibition test of mycelial growth against turf Pythium blight (Pythium graminicola); assay type: cell-based
# Protocol: as §1, §2
# Inhibition Test of Mycelial Growth Against Turf Pythium Blight (Pythium graminicola)
# The inhibition rate of mycelial growth was obtained by measuring mycelial growth in the same manner as Test Example 1. In addition, the mean mycelial growth of non-treated group was 46.5 mm.
smiles,measurement,setting,value
"Cc1ccc(-c2c(Cl)nc(C#N)n2S(=O)(=O)N(C)C)cc1 [Cyazofamid, 4-chloro-2-cyano-1-dimethylsulfamoyl-5-(4-methylphenyl)imidazole]",inhibition at 1 ppm,Pythium spinosum; Cyazofamid 1.0 ppm alone (polyoxin 0 ppm),68%
same,inhibition at 10 ppm,Pythium spinosum; Cyazofamid 10.0 ppm alone (polyoxin 0 ppm),54%
same,Inhibition Rate of Mycelial Growth (%),Pythium graminicola; Cyazofamid 1 ppm alone (agent 0 ppm),48%
same,Inhibition Rate of Mycelial Growth (%),Pythium graminicola; Cyazofamid 10 ppm alone (agent 0 ppm),47%
same,Inhibition Rate of Mycelial Growth (%),Pythium graminicola; Cyazofamid 100 ppm alone (agent 0 ppm),68%
